Source: PMC6428247, “Potent inhibitors of equine steroid isomerase EcaGST A3-3” (PLoS ONE, 2019)
Values joined by “and” are separate entries in the source; they are usually repeats but may differ in a detail not shown here. Identical values can stand only once. Like-named read-outs stand apart in the source and are kept apart here.

T1: HsaGST A3-3 (Homo sapiens, UniProt Q16772)
T1 construct: made in house
T1 sequence (Q16772 1-222): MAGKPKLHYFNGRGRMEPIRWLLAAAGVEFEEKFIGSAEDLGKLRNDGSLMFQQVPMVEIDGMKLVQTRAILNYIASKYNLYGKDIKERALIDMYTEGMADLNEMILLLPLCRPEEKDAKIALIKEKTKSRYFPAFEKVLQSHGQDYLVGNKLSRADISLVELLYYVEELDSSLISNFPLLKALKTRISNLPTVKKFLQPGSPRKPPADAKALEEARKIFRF

T2: HsaGST M2-2 (Homo sapiens, UniProt P28161)
T2 construct: made in house
T2 sequence (P28161 1-218): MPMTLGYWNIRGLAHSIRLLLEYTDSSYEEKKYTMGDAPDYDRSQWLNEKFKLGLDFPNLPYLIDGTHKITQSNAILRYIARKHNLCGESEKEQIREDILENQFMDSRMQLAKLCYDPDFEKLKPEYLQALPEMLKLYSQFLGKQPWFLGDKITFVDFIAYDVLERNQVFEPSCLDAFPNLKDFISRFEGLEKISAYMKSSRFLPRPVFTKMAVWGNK

B1: EcaGST A3-3 (Equus caballus) (protein)
chain: MAVKPMLHYFNGRGRMEPIRWLLAAAGVEFEETFIDTPEDFEKLKNDGSLMFQQVPMVEIDGMKLVQSRAILNYVAAKHNLYGKDIKERALIDMYIEGVADLNEMILLLPITPPAEKDAKIMLIKDRTTNRYLPAFEKVLKSHGEDYLVGNRLSRADIHLVELLYLVEELDPSLLTNFPLLKALKARISNLPTVKKFLQPGGARKPPGDEKSVEKSRKIFKF

Columns and labels:
[1] = molecular target: T1, HsaGST A3-3; parameters: method as in PMID 23769903; conditions: CDNB activity, 1 mM GSH, 1 mM CDNB, pH 6.5, 30°C; read-out: IC50 HsaGST A3-3 (published); cited from earlier work
[2] = molecular target: T2, HsaGST M2-2; assay: Inhibition of HsaGST M2-2 CDNB activity; type: biochemical; conditions: 10 μM inhibitor, 1 mM GSH, 1 mM CDNB, pH 6.5, 30°C
Protocol: (§1) EcaGST A3-3 [10], HsaGST A3-3 [12] and HsaGST M2-2 [13] were cloned, expressed and purified as described previously. Protein concentration was determined by means of the Bradford assay.
(§2) The conjugation of GSH with the electrophilic substrate CDNB was used as a biochemical assay for general activity measurements. Screening of the US Drug library for inhibition was done in triplicates in 96-well plates in a Thermo Scientific Multiskan GO spectrophotometer. The conjugation activity at 30°C was monitored at 340 nm for 1 min in 0.1 M sodium phosphate buffer at pH 6.5 and 10 μM inhibitor concentration in a final volume of 300 μL. Initial concentrations of GSH and CDNB were 1 mM.
(§3) For understanding the effects of pharmacological interventions based on GST inhibitors, it is important to know the selectivity among the numerous GSTs. […] All values were determined with CDNB, which is a common substrate for all the enzymes.

[3] = molecular target: T3, EcaGST A3-3 (Equus caballus, UniProt M9ZT87); assay: Inhibition of EcaGST A3-3 activity, GSH conjugation with CDNB; type: biochemical, Equus ferus caballus; conditions: for Inhibition (%) of EcaGST A3-3: 10 μM inhibitor, sodium phosphate pH 6.5, 30°C
Protocol: The final solvent concentration in the reaction system was kept at 5% (v/v) as a maximum.
as §2
Assay conditions for inhibition measurements of enzyme activity with CDNB were the following: EcaGST A3-3 15 nM, initial concentrations of GSH and CDNB 1 mM, inhibitor concentrations varying from 0.029 μM to 15 μM, in 100 mM Na2HPO4/NaH2PO4 at pH 6.5.
The reactions were followed spectrophotometrically for 1 min at 30°C using a Shimadzu UV-2501 PC spectrophotometer (Shimadzu Inc.). All experiments included triplicate measurements in each data point.
The equation for competitive inhibition fitted by non-linear regression was v=Vmax[S]/KM(1+[I]/Ki)+[S] where [S] is the substrate concentrations and [I] is the inhibitor concentration.

[4] = molecular target: T3, EcaGST A3-3; assay: Inhibition of EcaGST A3-3 steroid double-bond isomerase activity with Δ^5-AD; type: biochemical, Equus ferus caballus; conditions: for IC50 EcaGST A3-3, substrate Δ^5-AD: 0.1 mM Δ^5-AD, 1 mM GSH, 25 mM sodium phosphate pH 8.0, 30°C
[5] = system: HsaGST P1-1; parameters: method as in PMID 23769903; conditions: 1 mM GSH, 1 mM CDNB, pH 6.5, 30°C, cited from earlier work; for Inhibition (%) of HsaGST P1-1: 3.3 μM inhibitor; for IC50: CDNB activity
[6] = molecular target: T1, HsaGST A3-3; assay: Inhibition of HsaGST A3-3 CDNB activity; type: biochemical; conditions: 1 mM GSH, 1 mM CDNB, pH 6.5, 30°C; for Inhibition (%) of HsaGST A3-3: 10 μM inhibitor
Protocol: as §1, §2, §3

[7] = system: HsaGST S1-1; parameters: method as in PMID 25603235; conditions: 1 mM GSH, 1 mM CDNB, pH 6.5, 30°C, cited from earlier work; for Inhibition (%) of HsaGST S1-1: 10 μM inhibitor; for IC50: CDNB activity
[8] = substrate: CC12CCC3C(CC=C4CC(=O)CCC43C)C1CCC2=O; assay: purified protein, by the assay type; conditions: other: 1 mM GSH, fitted with and without anthralin; 30.0 °C

Row | Molecule | IC50 [1] [nM] | Inhibition (%) of HsaGST M2-2 [2] | Inhibition (%) of EcaGST A3-3 ([3]; 1 mM GSH, 1 mM CDNB) [%] | IC50 EcaGST A3-3, substrate Δ^5-AD [4] | Inhibition (%) of HsaGST P1-1 [5] [%] | IC50 [5] [nM] | Inhibition (%) of HsaGST A3-3 [6] [%] | Inhibition (%) of HsaGST S1-1 [7] [%] | IC50 [7] [nM] | other results
1 | C=C(CC)C(=O)c1ccc(OCC(=O)O)c(Cl)c1Cl [Ethacrynic acid] | 400 | low or negligible effects | 100 | submicromolar range | 25 | 4900 | 94 | 32 | 44000 | inhibition at 10 µM ([2]; read-out: Inhibition (%) of HsaGST M2-2): 0%; IC50 [3]: 180 ± 67 nM; Inhibition modality, substrate CDNB ([3]; CDNB varied, 1 mM GSH): Competitive; Ki ([3]; Ki, EcaGST A3-3, substrate CDNB, CDNB varied, 1 mM GSH, 0.25 μM inhibitor): 140 nM and 141 nM; Hill coefficient, CDNB inhibition ([3]; dose-response curve, substrate CDNB, mean ± SD): 2.5±0.21; inhibition at 10 µM ([3]; pH 6.5, read-out: Inhibition (%) of EcaGST A3-3, 10 μM inhibitor, 1 mM GSH, 1 mM CDNB, sodium phosphate pH 6.5, 30°C): 94 to 100%; IC50 [4]: 250 ± 100 nM; Hill coefficient, Δ^5-AD inhibition ([4]; dose-response curve, substrate Δ^5-AD, mean ± SD): 1.0; Inhibition (%) of HsaGST P1-1 ([5]; listed as ethacrynic acid): low or negligible effects; inhibition at 10 µM ([6]; pH 6.5, 10 μM inhibitor, read-out: Inhibition (%) of HsaGST A3-3): 94 to 100%; Inhibition (%) of HsaGST S1-1 ([7]; listed as ethacrynic acid): low or negligible effects
2 | Chlorophyllide Cu-complex Na salt | 330 | 100% | 98 ±2.2 | Anomalous curve | 51 | 2300 | 84 | 100 | 1700 | IC50 ([3]; 1 mM CDNB, 1 mM GSH, 100 mM sodium phosphate pH 6.5, 30°C, read-out: IC50 EcaGST A3-3, substrate CDNB): 2100 ± 270 nM
3 | B1 |  |  |  |  |  |  |  |  |  | Km [8]: 10.8 ± 0.46 µM
